Values of other authors, collected in patent US10596151B2, “Methods and pharmaceutical compositions for reducing arterial stiffness with a combination of a therapeutic agent blocking the angiotensin receptor and a therapeutic agent inhibiting the NEP enzyme” (Novartis AG, priority 2015, dated 2020).

System: patients with hypertension
Settings: after 12 weeks of therapy; cited from earlier work

Compound: O=C(N[C@H]1CCS[C@H]2CCC[C@@H](C(=O)O)N2C1=O)[C@@H](S)Cc1ccccc1 [omapatrilat]
- aortic characteristic impedance compared with enalapril: greater improvements in aortic characteristic impedance compared with enalapril
